The results in this text go back to patent US11155525B2 (Sanford Burnham Prebys Medical Discovery Institute, priority 2015, dated 2021).

pEC50: −log10 of the molar value.

The experiment deals with T1, human apelin receptor (Homo sapiens, UniProt P35414).
T1 construct: host or cells: CHO cells
T1 sequence (P35414 1-380): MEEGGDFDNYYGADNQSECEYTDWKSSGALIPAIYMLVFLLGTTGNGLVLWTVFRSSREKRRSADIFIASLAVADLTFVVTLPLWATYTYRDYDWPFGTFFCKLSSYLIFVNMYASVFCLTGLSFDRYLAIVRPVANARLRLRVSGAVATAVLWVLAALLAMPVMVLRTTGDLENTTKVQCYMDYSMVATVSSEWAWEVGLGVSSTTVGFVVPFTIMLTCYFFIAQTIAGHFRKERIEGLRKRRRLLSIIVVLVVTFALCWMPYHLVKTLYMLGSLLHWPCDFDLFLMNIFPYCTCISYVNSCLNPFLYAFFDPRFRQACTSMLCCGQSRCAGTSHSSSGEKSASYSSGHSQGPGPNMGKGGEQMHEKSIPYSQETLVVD
The experiment can be described thus: Measurement of apelin receptor agonist activity (cell-based assay determining the amount of intracellular cAMP). The following applies: CHO cells stably expressing the human apelin receptor, Forskolin 10 μM, 30 minutes, 100% efficacy = [Pyr1]-apelin-13 0.300 μM, concentration giving 50% efficacy. In outline:
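CHO cells stably expressing the receptor were treated for 30 min with compound ([…], 3-fold, 11 points; 0.3% DMSO) together with 10 μM forskolin. cAMP was measured by chemiluminescent lysate assay. Efficacy was scaled from forskolin alone (0%) to 0.300 μM [Pyr1]-apelin-13 plus forskolin (100%), and dose-response curves were fitted.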
As to `COC(=O)c1cccc(-c2nnc(-c3ccc(C)o3)n2-c2c(OC)cccc2OC)c1` [Example 45, Methyl 3-[4-(2,6-dimethoxyphenyl)-5-(5-methylfuran-2-yl)-4H-1,2,4-triazol-3-yl]benzoate], the pEC50 (commonly −log10 of the EC50, conventionally taken in molar units) was 5.88.
Take `COc1cccc(OC)c1-n1c(CN)nnc1-c1ccc(C)o1` [Example 70, 1-[4-(2,6-Dimethoxyphenyl)-5-(5-methylfuran-2-yl)-4H-1,2,4-triazol-3-yl]methanamine]: the pEC50 is 6.42. Against the preceding compound, the pEC50 is 0.54 log units higher.
Consider `COc1cccc(OC)c1-n1c(SC(Cc2ccccc2)C(=O)O)nnc1-c1ccc(C)o1` (stereo not shown) [Example 39, 2-{[4-(2,6-Dimethoxyphenyl)-5-(5-methylfuran-2-yl)-4H-1,2,4-triazol-3-yl]sulfanyl}-3-phenylpropanoic acid], for which the pEC50 was 7.96.
In turn, `COc1cccc(OC)c1-n1c(SCc2cccc(C(N)=O)c2)nnc1-c1ccc(C)o1` [Example 106, 3-({[4-(2,6-Dimethoxyphenyl)-5-(5-methylfuran-2-yl)-4H-1,2,4-triazol-3-yl]sulfanyl}methyl)benzamide] had a pEC50 of 6.10. This pEC50 lies 1.86 log units lower than the previous one.
To `COc1cccc(OC)c1-n1c(SCC(=O)O)nnc1C1CCCC1` [Example 33, {[5-Cyclopentyl-4-(2,6-dimethoxyphenyl)-4H-1,2,4-triazol-3-yl]sulfanyl}acetic acid] belongs 5.61; to `COc1cccc(OC)c1-n1c(OCC(OC)OC)nnc1-c1ccc(C)o1` [Example 87, 3-(2,2-Dimethoxyethoxy)-4-(2,6-dimethoxyphenyl)-5-(5-methylfuran-2-yl)-4H-1,2,4-triazole], 6.13; to `COc1cccc(OC)c1-n1c(/C=C/C(C)O)nnc1-c1ccc(C)o1` (stereo not shown) [Example 23, (3E)-4-[4-(2,6-Dimethoxyphenyl)-5-(5-methylfuran-2-yl)-4H-1,2,4-triazol-3-yl]but-3-en-2-ol], 6.57.
`CCOC(=O)C(=O)/C=C/c1nnc(-c2ccc(C)o2)n1-c1c(OC)cccc1OC` [Example 51, Ethyl (3E)-4-[4-(2,6-dimethoxyphenyl)-5-(5-methylfuran-2-yl)-4H-1,2,4-triazol-3-yl]-2-oxobut-3-enoate] had a negative logarithm of the EC50 (pEC50) of 6.95. This pEC50 lies 0.38 log units higher than the previous one.
In turn, `COc1cccc(OC)c1-n1c(COCC(=O)O)nnc1-c1ccc(C)o1` [Example 67, {[4-(2,6-Dimethoxyphenyl)-5-(5-methylfuran-2-yl)-4H-1,2,4-triazol-3-yl]methoxy}acetic acid] showed a pEC50 of 6.11.
The compound `COc1cccc(OC)c1-n1c(OCC(=O)O)nnc1-c1ccc(C)o1` [Example 88, {[4-(2,6-Dimethoxyphenyl)-5-(5-methylfuran-2-yl)-4H-1,2,4-triazol-3-yl]oxy}acetic acid] gave a pEC50 of 7.46.
Compound `COc1cccc(OC)c1-n1c(-c2ccc(C(=O)O)cc2)nnc1-c1ccc(C)o1` [Example 48, 4-[4-(2,6-Dimethoxyphenyl)-5-(5-methylfuran-2-yl)-4H-1,2,4-triazol-3-yl]benzoic acid] gave a pEC50 of 7.66. This pEC50 lies 0.20 log units higher than the previous one.
With `COC(=O)C(Sc1nnc(-c2ccc(C)o2)n1-c1c(OC)cccc1OC)c1ccccn1` (racemic) [Example 89, Methyl {[4-(2,6-dimethoxyphenyl)-5-(5-methylfuran-2-yl)-4H-1,2,4-triazol-3-yl]sulfanyl}(pyridin-2-yl)acetate], the pEC50 is 6.58.
With `COc1cccc(OC)c1-n1c(CO)nnc1-c1ccc(C)o1` [Example 7, [4-(2,6-Dimethoxyphenyl)-5-(5-methylfuran-2-yl)-4H-1,2,4-triazol-3-yl]methanol], the pEC50 was 6.09.
For the compound `Cc1ccc(-c2nnc(SCC(=O)O)n2-c2c(Cl)cccc2Cl)o1` [Example 32, {[4-(2,6-Dichlorophenyl)-5-(5-methylfuran-2-yl)-4H-1,2,4-triazol-3-yl]sulfanyl}acetic acid], the pEC50 was 5.40.
`COc1cccc(OC)c1-n1c(SC)nnc1-c1ccc(C)o1` [Example 85, 4-(2,6-Dimethoxyphenyl)-3-(5-methylfuran-2-yl)-5-(methylsulfanyl)-4H-1,2,4-triazole] showed a pEC50 of 6.60.
On to `COc1cccc(OC)c1-n1c(SCCCC(=O)O)nnc1-c1ccc(C)o1` [Example 22, 4-{[4-(2,6-Dimethoxyphenyl)-5-(5-methylfuran-2-yl)-4H-1,2,4-triazol-3-yl]sulfanyl}butanoic acid], for which the pEC50 is 7.06.
On to `COc1cccc(OC)c1-n1c(-c2cccc(C(=O)O)c2)nnc1-c1ccc(C)o1` [Example 46, 3-[4-(2,6-Dimethoxyphenyl)-5-(5-methylfuran-2-yl)-4H-1,2,4-triazol-3-yl]benzoic acid], for which the pEC50 is 7.02. This pEC50 and that of the compound before are within 0.2 log units of each other.
`COc1cccc(OC)c1-n1c(SCC(=O)O)nnc1-c1cccnc1` [Example 27, {[4-(2,6-Dimethoxyphenyl)-5-(pyridin-3-yl)-4H-1,2,4-triazol-3-yl]sulfanyl}acetic acid] gave a pEC50 of 5.54.
`COc1cccc(OC)c1-n1c(CNS(=O)(=O)c2ccc(C)cc2)nnc1-c1ccc(C)o1` [Example 107, N-{[4-(2,6-Dimethoxyphenyl)-5-(5-methylfuran-2-yl)-4H-1,2,4-triazol-3-yl]methyl}-4-methylbenzenesulfonamide] gave a negative logarithm of the EC50 (pEC50) of 6.18. Compared with the last compound, the pEC50 is 0.64 log units higher.
Take `COc1cccc(OC)c1-n1c(-c2ccccc2)nnc1-c1ccc(C)o1` [Example 57, 4-(2,6-Dimethoxyphenyl)-3-(5-methylfuran-2-yl)-5-phenyl-4H-1,2,4-triazole]: the pEC50 is 5.92.
As to `COc1cccc(OC)c1-n1c(/C=C/C(N)=O)nnc1-c1ccc(C)o1` [Example 19, (2E)-3-[4-(2,6-Dimethoxyphenyl)-5-(5-methylfuran-2-yl)-4H-1,2,4-triazol-3-yl]prop-2-enamide], the pEC50 is 6.77.
The same measure for `CCCCc1nnc(SCC(=O)O)n1-c1c(OC)cccc1OC` [Example 29, {[5-Butyl-4-(2,6-dimethoxyphenyl)-4H-1,2,4-triazol-3-yl]sulfanyl}acetic acid]: 6.09.
